Results on three compounds are retold here after ChEMBL document CHEMBL1157025, “Evaluation of aldose reductase inhibition and docking studies of 6'-nitro and 6',6''-dinitrorosmarinic acids” (Eur J Med Chem, 2010).

Structures are written as SMILES.

In this experiment the target is Aldo-keto reductase family 1 member B1 (Homo sapiens, UniProt P15121). As to the kind of experiment: Inhibition of aldose reductase.

Take `O=C(/C=C/c1ccc(O)c(O)c1)O[C@H](Cc1cc(O)c(O)cc1[N+](=O)[O-])C(=O)O`: the IC50 (read-out: IC50) came out at 1.84 µM.

Turning to `O=C(/C=C/c1cc(O)c(O)cc1[N+](=O)[O-])O[C@H](Cc1cc(O)c(O)cc1[N+](=O)[O-])C(=O)O`, where the note is “read-out: IC50”, the half-inhibitory concentration (IC50) was 0.741 µM.

`O=C(/C=C/c1ccc(O)c(O)c1)O[C@H](Cc1ccc(O)c(O)c1)C(=O)O` [ROSMARINIC ACID] yielded an IC50 of 3.91 µM.

One may read the IC50 as the concentration at which inhibition is half-maximal.
